Laboratory results: patent US10556905B2, “Processes for preparing a diazabicyclooctane compound” (priority 2012, dated 2020)
Where two headings read alike, the source gives them in different places.

What was measured:
[1] = molecular target: T1, KPC-2 (Klebsiella pneumoniae, UniProt Q9F663); experiment: β-Lactamase inhibitory activity (nitrocefin hydrolysis), KPC-2; format: biochemical; conditions: KPC-2 0.5 nM, 100 μM nitrocefin, pre-incubation 30° C. 10 minutes
T1 construct: AmpC, TEM-1, KPC-2 or OXA-2 domain excluding signal peptide was amplified with PCR; made in house; host or cells: Escherichia coli BL21 (DE3), pET-28b(+)

[2] = molecular target: T2, AmpC (Pseudomonas aeruginosa, UniProt P24735); experiment: biochemical
T2 construct: AmpC, TEM-1, KPC-2 or OXA-2 domain excluding signal peptide was amplified with PCR; made in house; host or cells: Escherichia coli BL21 (DE3), pET-28b(+)

[3] = molecular target: T3, OXA-2 (Escherichia coli, UniProt P0A1V9); experiment: biochemical; parameters: species or system P. aeruginosa
T3 construct: AmpC, TEM-1, KPC-2 or OXA-2 domain excluding signal peptide was amplified with PCR; made in house; host or cells: Escherichia coli BL21 (DE3), pET-28b(+)

[4] = molecular target: T4, TEM-1 (Escherichia coli, UniProt P62593); experiment: β-Lactamase inhibitory activity (nitrocefin hydrolysis), TEM-1; format: biochemical; conditions: TEM-1 0.1 nM, 100 μM nitrocefin, pre-incubation 30° C. 10 minutes
T4 construct: AmpC, TEM-1, KPC-2 or OXA-2 domain excluding signal peptide was amplified with PCR; made in house; host or cells: Escherichia coli BL21 (DE3), pET-28b(+)
Outline: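 Recombinant TEM-1 (signal peptide removed), expressed in E. coli BL21(DE3), hydrolysing 100 μM nitrocefin (final) in 50 mM phosphate pH 7.0 with 2.5% DMSO and 10 μg/mL BSA. Incubated 20 min at 30° C; A492 read. Potency given as bands A (<0.1 μM) to E (≥10 μM).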

[5] = OXA-2 2 nM, 100 μM nitrocefin, pre-incubation 30° C. 10 minutes, read-out: β-Lactamase inhibitory activity OXA-2 (IC50)

T2 sequence (P24735 27-397): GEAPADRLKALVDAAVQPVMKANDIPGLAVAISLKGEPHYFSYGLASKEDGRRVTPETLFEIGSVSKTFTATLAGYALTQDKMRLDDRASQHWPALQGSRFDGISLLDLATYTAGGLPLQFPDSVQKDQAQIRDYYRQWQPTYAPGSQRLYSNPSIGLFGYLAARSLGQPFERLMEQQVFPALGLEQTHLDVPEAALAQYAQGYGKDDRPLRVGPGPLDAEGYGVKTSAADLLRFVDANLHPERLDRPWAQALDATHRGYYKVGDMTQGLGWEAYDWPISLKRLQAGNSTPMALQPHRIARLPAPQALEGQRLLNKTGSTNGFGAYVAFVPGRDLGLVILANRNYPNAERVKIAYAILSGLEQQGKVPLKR
T4 sequence (P62593 24-286 limits assumed): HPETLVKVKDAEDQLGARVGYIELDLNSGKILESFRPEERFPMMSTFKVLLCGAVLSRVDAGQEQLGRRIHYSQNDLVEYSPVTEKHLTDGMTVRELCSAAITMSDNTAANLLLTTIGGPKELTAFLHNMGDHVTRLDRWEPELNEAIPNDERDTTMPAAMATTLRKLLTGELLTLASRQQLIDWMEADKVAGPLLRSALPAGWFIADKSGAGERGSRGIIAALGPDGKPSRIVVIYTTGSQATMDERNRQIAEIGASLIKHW
T1 sequence (Q9F663 25-293, looked up): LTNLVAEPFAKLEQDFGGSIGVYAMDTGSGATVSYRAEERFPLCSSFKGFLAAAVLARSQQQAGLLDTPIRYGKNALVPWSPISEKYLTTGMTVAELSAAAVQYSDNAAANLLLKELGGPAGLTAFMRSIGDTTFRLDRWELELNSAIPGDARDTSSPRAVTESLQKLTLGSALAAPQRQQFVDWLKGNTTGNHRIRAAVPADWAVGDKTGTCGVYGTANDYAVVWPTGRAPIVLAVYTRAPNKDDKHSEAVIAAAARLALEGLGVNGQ
T3 sequence (P0A1V9 22-275): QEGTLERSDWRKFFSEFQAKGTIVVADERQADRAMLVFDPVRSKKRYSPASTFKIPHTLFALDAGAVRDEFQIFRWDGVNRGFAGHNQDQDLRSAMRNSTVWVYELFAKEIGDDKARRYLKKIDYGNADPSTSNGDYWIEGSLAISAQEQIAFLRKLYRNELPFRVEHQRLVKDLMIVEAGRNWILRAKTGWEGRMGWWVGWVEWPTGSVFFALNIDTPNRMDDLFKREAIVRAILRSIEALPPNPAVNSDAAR

| SMILES | IC50 [1] | IC50 [2] | IC50 [3, 5] | IC50 [4] | IC50 [3] |
| --- | --- | --- | --- | --- | --- |
| CNCCONC(=O)[C@@H]1CC[C@@H]2CN1C(=O)N2OS(=O)(=O)O [Example 61, (2S,5R)—N-[2-(Methylamino)ethoxy]-7-oxo-6-(sulfooxy)-1,6-diazabicyclo[3.2.1]octane-2-carboxamide] | 1 to 3 µM | 0.1 to 1 µM | 1 to 3 µM | < 0.1 µM | – |
| O=C(NN1CCOCC1)[C@@H]1CC[C@@H]2CN1C(=O)N2OS(=O)(=O)O (racemic) [Example 55, Sodium (2SR,5RS)—N-(morpholin-4-yl)-7-oxo-6-(sulfooxy)-1,6-diazabicyclo[3.2.1]octane-2-carboxamide] | 1 to 3 µM | 0.1 to 1 µM | – | 0.1 to 1 µM | 3 to 10 µM |
| NNC(=O)[C@@H]1CC[C@@H]2CN1C(=O)N2OS(=O)(=O)O [Example 17, (2S,5R)-7-Oxo-6-(sulfooxy)-1,6-diazabicyclo[3.2.1]octane-2-carbohydrazide] | 0.1 to 1 µM | 0.1 to 1 µM | 3 to 10 µM | < 0.1 µM | – |
| CC(=O)N(C)NC(=O)[C@@H]1CC[C@@H]2CN1C(=O)N2OS(=O)(=O)O (racemic) [Example 25, Sodium (2SR,5RS)—N′-acetyl-N′-methyl-7-oxo-6-(sulfooxy)-1,6-diazabicyclo[3.2.1]octane-2-carbohydrazide] | < 0.1 µM | 0.1 to 1 µM | – | < 0.1 µM | > 10 µM |
| Nc1ccc(CC(=O)NNC(=O)[C@@H]2CC[C@@H]3CN2C(=O)N3OS(=O)(=O)O)cc1 [Example 28, (2S,5R)—N′-[(4-Aminophenyl)acetyl]-7-oxo-6-(sulfooxy)-1,6-diazabicyclo[3.2.1]octane-2-carbohydrazide] | 0.1 to 1 µM | < 0.1 µM | 3 to 10 µM | < 0.1 µM | – |
| CS(=O)(=O)CCONC(=O)[C@@H]1CC[C@@H]2CN1C(=O)N2OS(=O)(=O)O [Example 97, Sodium (2S,5R)—N-[2-(methylsulfonyl)ethoxy]-7-oxo-6-(sulfooxy)-1,6-diazabicyclo[3.2.1]octane-2-carboxamide] | < 0.1 µM | < 0.1 µM | – | < 0.1 µM | 0.1 to 1 µM |
| CN(NC(=O)[C@@H]1CC[C@@H]2CN1C(=O)N2OS(=O)(=O)O)C(=O)OC(C)(C)C (racemic) [Example 18, Sodium tert-butyl 1-methyl-2-{[(2SR,5RS)-7-oxo-6-(sulfooxy)-1,6-diazabicyclo[3.2.1]oct-2-yl]carbonyl}hydrazinecarboxylate] | 0.1 to 1 µM | 0.1 to 1 µM | – | < 0.1 µM | 1 to 3 µM |
| O=C(NOCCn1cccc1)[C@@H]1CC[C@@H]2CN1C(=O)N2OS(=O)(=O)O [Example 87, Sodium (2S,5R)-7-oxo-N-[2-(1H-pyrrol-1-yl)ethoxy]-6-(sulfooxy)-1,6-diazabicyclo[3.2.1]octane-2-carboxamide] | < 0.1 µM | < 0.1 µM | – | < 0.1 µM | 0.1 to 1 µM |
| O=C(NNC(=O)[C@@H]1CC[C@@H]2CN1C(=O)N2OS(=O)(=O)O)c1ccco1 [Example 43, Sodium (2S,5R)—N′-(furan-2-ylcarbonyl)-7-oxo-6-(sulfooxy)-1,6-diazabicyclo[3.2.1]octane-2-carbohydrazide] | 0.1 to 1 µM | 0.1 to 1 µM | – | < 0.1 µM | 1 to 3 µM |
| O=C(NNC(=O)[C@@H]1CC[C@@H]2CN1C(=O)N2OS(=O)(=O)O)[C@@H]1C[C@H](CC2CC2)CCN1 [Example 40, (2S,5R)—N′-{[(2S,4R)-4-Cyclopropylmethylpiperidine-2-yl]carbonyl}-7-oxo-6-(sulfooxy)-1,6-diazabicyclo[3.2.1]octane-2-carbohydrazide] | 3 to 10 µM | 0.1 to 1 µM | 1 to 3 µM | < 0.1 µM | – |
| NCCCONC(=O)[C@@H]1CC[C@@H]2CN1C(=O)N2OS(=O)(=O)O [Example 69, (2S,5R)—N-(3-Aminopropoxy)-7-oxo-6-(sulfooxy)-1,6-diazabicyclo[3.2.1]octane-2-carboxamide] | 1 to 3 µM | 0.1 to 1 µM | 0.1 to 1 µM | < 0.1 µM | – |
| NCc1ccc(C(=O)NNC(=O)[C@@H]2CC[C@@H]3CN2C(=O)N3OS(=O)(=O)O)cc1 (racemic) [Example 32, (2SR,5RS)—N′-(4-(Aminomethyl)benzoyl)-7-oxo-6-(sulfooxy)-1,6-diazabicyclo[3.2.1]octane-2-carbohydrazide] | 0.1 to 1 µM | < 0.1 µM | 3 to 10 µM | < 0.1 µM | – |
| CN(C)C(=O)CONC(=O)[C@@H]1CC[C@@H]2CN1C(=O)N2OS(=O)(=O)O [Example 89, Sodium (2S,5R)—N-[2-(dimethylamino)-2-oxoethoxy]-7-oxo-6-(sulfooxy)-1,6-diazabicyclo[3.2.1]octane-2-carboxamide] | < 0.1 µM | < 0.1 µM | – | < 0.1 µM | 0.1 to 1 µM |
| O=C(NOC1CNC1)[C@@H]1CC[C@@H]2CN1C(=O)N2OS(=O)(=O)O [Example 79, (2S,5R)—N-(Azetidin-3-yloxy)-7-oxo-6-(sulfooxy)-1,6-diazabicyclo[3.2.1]octane-2-carboxamide] | 1 to 3 µM | 0.1 to 1 µM | 1 to 3 µM | < 0.1 µM | – |
| O=C(NNC(=O)[C@@H]1CC[C@@H]2CN1C(=O)N2OS(=O)(=O)O)[C@H]1CCCCN1 [Example 37, (2S,5R)-7-Oxo-N′-[(2R)-piperidine-2-ylcarbonyl]-6-(sulfooxy)-1,6-diazabicyclo[3.2.1]octane-2-carbohydrazide] | 1 to 3 µM | 1 to 3 µM | 1 to 3 µM | < 0.1 µM | – |
| CC(=O)NNC(=O)[C@@H]1CC[C@@H]2CN1C(=O)N2OS(=O)(=O)O [Example 21, Sodium (2S,5R)—N′-acetyl-7-oxo-6-(sulfooxy)-1,6-diazabicyclo[3.2.1]octane-2-carbohydrazide] | 0.1 to 1 µM | 0.1 to 1 µM | – | < 0.1 µM | 1 to 3 µM |
| NCCC(=O)NNC(=O)[C@@H]1CC[C@@H]2CN1C(=O)N2OS(=O)(=O)O [Example 27, (2S,5R)—N′-(3-Aminopropanoyl)-7-oxo-6-(sulfooxy)-1,6-diazabicyclo[3.2.1]octane-2-carbohydrazide] | 1 to 3 µM | 0.1 to 1 µM | 1 to 3 µM | < 0.1 µM | – |
| O=C(NNC(=O)[C@@H]1CC[C@@H]2CN1C(=O)N2OS(=O)(=O)O)[C@@H]1CCCCN1 [Example 36, (2S,5R)-7-Oxo-N′-[(2S)-piperidine-2-ylcarbonyl]-6-(sulfooxy)-1,6-diazabicyclo[3.2.1]octane-2-carbohydrazide] | 1 to 3 µM | 0.1 to 1 µM | 3 to 10 µM | < 0.1 µM | – |
| O=C(NOC1CCNCC1)[C@@H]1CC[C@@H]2CN1C(=O)N2OS(=O)(=O)O [Example 84, (2S,5R)-7-Oxo-N-(piperidine-4-yloxy)-6-(sulfooxy)-1,6-diazabicyclo[3.2.1]octane-2-carboxamide] | 1 to 3 µM | < 0.1 µM | 0.1 to 1 µM | < 0.1 µM | – |
| O=C(NN1CCCC1=O)[C@@H]1CC[C@@H]2CN1C(=O)N2OS(=O)(=O)O (racemic) [Example 33, Sodium (2SR,5RS)-7-oxo-N-(2-oxopyrrolidin-1-yl)-6-(sulfooxy)-1,6-diazabicyclo[3.2.1]octane-2-carboxamide] | 0.1 to 1 µM | 0.1 to 1 µM | – | < 0.1 µM | 3 to 10 µM |
